Source: patent publication EP0407582A1, “DERIVATIVES OF TRICHLOROPHOSPHAS[…] INSECTICIDAL, VIRICIDAL, HEMATOCIDAL, FUNGICIDAL AND OVOCIDAL PREPARATIONS BASED ON THEM” (priority 1989, dated 1990)
Like-named read-outs stand apart in the source and are kept apart here.

Assays:
[1] = test system: mice and rats; settings: cited from earlier work
[2] = test system: domestic flies; test: Insecticidal activity, laboratory test in gauze boxes; type: in vivo; settings: 0.25% solution in 5% aqueous glucose solution; death rate estimated in 48 - 72 hours
Experimental: An insecticidal composition based thereon, which was a 0.25% solution of this compound in a 5% aqueous glucose solution, was prepared. The laboratory and large-scale tests of the activity of an insecticidal composition of the invention was conducted on domestic flies. for laboratory tests into the gauze-made boxes (10x10 cm, 6 boxes), there were placed 6-7-day flies of both sexes by 50 individuals per each box. Into 5 boxes there were placed Petri dishes containing the insecticidal composition of the invention. The death rate of flies was estimated-in 48 - 72 hours. A Petri dish containing a 5% aqueous solution of glucose was placed into the control box. The insecticidal activity of the composition, according to the invention, was tested in comparison with a known insecticidal composition containing 0,0-dimethyl-/1-hydroay-2,2-trichloroethyl/phosphonate.

[3] = test system: domestic flies; test: Insecticidal activity, large-scale test in living and industrial premises; type: in vivo; settings: 0.25% solution with 5% glucose solution, 2-3 dishes per 20 m2; 72 hours
Experimental: The large-scale tests of the activity of the insecticidal composition, according to the invention, was conducted on domestic flies in living and industrial premises. Petri dishes containing a 0.25% aqueous solution of the insecticide, according to the invention, added with a 5% glucose solution, were put at a rate of 2-3 dishes per 20 m2. The .activity of the composition of the invention was estimated by a direct count of dead insects in 72 hours or by using the adhesive tapes, counting the number of flies on the tape prior and after carrying out the test.

[4] = Solubility in water and organic solvents; type: physicochemical; settings: qualitative, solvents named
[5] = test system: invasion larvae of a root-knot nematode; test: Nematocidal activity, laboratory test; type: in vivo; settings: Meloidogyne javanica; 1% solution in water; 24 hrs; read-out: Larva death, % Tests laboratory
Experimental: (§1) The process was carried out in manner similar to that described in Example 3. […] The insecticidal activity was tested in a manner similar to that described in Example 3. A nematocidal composition based on the compound.-was prepared which was its 1% solution in water. A nematocidal effect of the composition was tested in laboratory conditions to the invasion larvae of a root-knot nematode. For testing it, one drop of a suspension containing 100 invasion larvae of root-knot nematodes was placed onto the cover glasses having cells. Thereafter, one drop of the nematocidal composition of the invention was put thereto. One drop of distilled water instead of the test composition was placed into the control cell..The glasses with test and control cells were put on a moisten ashless filter of a Petri dish, and 24 hrs later the killed nematodes were registered. The tests were repeated three times. The nematocidal activity of the composition, according to the invention was tested in comparison with the known nematocidal preparation containing 0,0-dimethyl-0-2,2/dichlorovinyl/phosphate. The field tests were carried out at the 5 m^2 plots affected by tomato nematodes. For testing it, the plots were treated with the nematocidal composition of the invention and the known nematocidal composition.

[6] = test system: tomato nematodes; test: Nematocidal activity, field test on 5 m2 plots; type: in vivo; settings: 1% solution in water, read-out: Larva death, % Tests field
Experimental: as §1

[7] = test system: leaves of tomatoes and cucumbers; test: Phytotoxicity of the nematocidal composition; type: in vivo; settings: 1% solution in water
[8] = test system: hepatitis B virus; test: Virucidal activity, suspension method under protein loading, counter-current immunoelectrophoresis; settings: concentration 1 %
[9] = test system: poliomyelitis virus; test: microbe, parasite or virus in culture; type: cell-based, poliomyelitis-II virus; settings: concentration 1 %
[10] = test system: influenza A virus; test: microbe, parasite or virus in culture; design: species or system strain of influenza A1 virus; settings: concentration 1 %
[11] = test system: pig ascarid ovigerms; test: Ovocidal activity on watch glasses, 2% solution; type: in vivo; settings: concentration 2 %
Experimental: An ovocidal composition based on this compound was prepared in the form of a 2% solution thereof in distilled water. An ovocidal activity of the composition, according to the invention, was tested as follows.
A drop of a suspension containing at least 1.000 ascarid ovigerms was placed onto the watch glasses followed by adding thereto by 1 ml of the composition of the invention. Thereafter the watch glasses were put them into a humid chamber of a thermostat at a temperature of 24 - 26 °C. In every […] the watch glasses with ascarid ovigerms and with the composition of the invention were withdrawn from the thermostat and washed with distilled water for 2-3 times.
Then, the washed ascaride ovigerms were cultured for 30 days at a temperature of 24 - 26 °C. To determine the number of dead and viable ovigerms 200 ova were visualized under a microscope in every 3-5 days. Their death was determined by lack of the development of ovigerms up to the stage of larva and the.presence of destructive morphological changes for 30 days. An ovocidal activity of known composition based.on carbathion was determined by the same procedure. Control was carried out under the same conditions by adding a physiological saly solution. The death percentage of ova was estimated as a mean value of three results with the correction for death of ovigerms in the control and in comparison with the known compositions.

[12] = test system: helminthic ova; test: Ovocidal activity, large-scale disinfection of ambient objects; settings: 3% aqueous solution; ambient objects (equipment, tableware, hands); read-out: % Death of ovigerms Tests large-scale
Experimental: Based on this compound, there was prepared the ovocidal composition in the form of 3% solution thereof. The ovocidal activity of the composition, according to the invention, was tested disinfection of ambient objects (equipment, tableware, hands). For this purpose, a 3% aqueous solution of the compound, according to the invention, was used for treating said objects. The. efficiency of the ovocidal action was determined by the number of helminthic ova in washings from the ambient objects before and after treating them with the ovocidal composition of the invention.

[13] = test system: pig ascaride ovigerms; test: Ovocidal activity on watch glasses, 3% solution, laboratory test; type: in vivo; settings: Sus scrofa, read-out: % Death of ovigerms Tests laboratory
Experimental: A drop of a suspension containing at least 1,000 ascarid ovigerms was placed onto watch glasses followed by adding one droplet of a 3% solution of the composition of the invention. Thereafter, they were put into a humid chamber of a thermostat at a temperature of 24-26 °C. In every 24 hours during 3 days the watch glasses with ascarid ova and the composition of the invention were withdrawn from the thermostat and washed with distilled water 2-3 times.
Then, the washed ascarid ovigerms were incubated for 30 days at a temperature of 24 - 26-°C. To determine the number of dead and viable ova, 200 ovigerms were observed by means of a microscope every 3 - 5 days. The death was determined by lack of ova development for 30 days up to the stage of a mobile larva and the presence of destructive morphological changes: shrinkage and deformation of embryos, rupture of shells. The known composition - carbathion was tested under the same conditions by adding a solvent. The percentage death of ova was estimated as a mean value of three results with a correction for ova death in the control and_in-comparison with the known composition.

[14] = 24 h, read-out: Death of ascarid ovigerms (%) in 24 h
[15] = 48 h, read-out: Death of ascarid ovigerms (%) in 48 h

## 0,0-dimethyl(1-hydroxy-2,2,2-trichloroethyl) phosphonate [Known insecticidal composition]
[1]
  LDSO: 225 to 1200 mg/kg
[2]
  Death of flies, % Tests laboratory: 85%
[3]
  Death of flies, % Tests large-scale: 83%

## O=C(N=P(OC(CCl)c1ccccc1)(OC(CCl)c1ccccc1)OC(CCl)c1ccccc1)c1ccccc1 (stereo not drawn) [Example 3, tris/2-chloro-1-phenylethoxy/phosphazobenzoyl]
[4]
  solubility: soluble in water, alcohols, acetone, benzene, toluene
[5]
  killing at 1 %: 100%
[6]
  mortality at 1 %: 100%
[2]
  Death of flies, % Tests laboratory: 100%
[7]
  phytotoxic effects on the leaves of tomatoes and cucumbers: no phytotoxic effects
[8]; 0.25 h, 15 min, read-out: Death of viruses (%) under exposure, Hepatitis B, 15 min
  killing at 1 %: 75%
[8]; 0.5 h, 30 min, read-out: Death of viruses (%) under exposure, Hepatitis B, 30 min
  killing at 1 %: 100%
[8]; 1 h, 60 min, read-out: Death of viruses (%) under exposure, Hepatitis B, 60 min
  killing at 1 %: 100%
[3]
  Death of flies, % Tests large-scale: 100%
[9]; 10 min, 10 min, read-out: Death of viruses (%) under exposure, Poliomyelitis, 10 min
  killing at 1 %: 20%
[9]; 0.5 h, 30 min, read-out: Death of viruses (%) under exposure, Poliomyelitis, 30 min
  killing at 1 %: 50%
[9]; 1 h, 60 min, read-out: Death of viruses (%) under exposure, Poliomyelitis, 60 min
  killing at 1 %: 70%
[10]; 0.25 h, 15 min, read-out: Death of viruses (%) under exposure, Influenza A, 15 min
  killing at 1 %: 30%
[10]; 0.5 h, 30 min, read-out: Death of viruses (%) under exposure, Influenza A, 30 min
  killing at 1 %: 50%
[10]; 1 h, 60 min, read-out: Death of viruses (%) under exposure, Influenza A, 60 min
  killing at 1 %: 100%
[11]; [14]
  killing at 2 %: 68.1%
[11]; [15]
  killing at 2 %: 93.4%
[11]; 72 h, read-out: Death of ascarid ovigerms (%) in 72 h
  killing at 2 %: 100%

## O=C(N[C@H](COP(=NC(=O)C(Cl)(Cl)Cl)(OC[C@@H](NC(=O)C(Cl)Cl)[C@H](O)c1ccc([N+](=O)[O-])cc1)OC[C@@H](NC(=O)C(Cl)Cl)[C@H](O)c1ccc([N+](=O)[O-])cc1)[C@H](O)c1ccc([N+](=O)[O-])cc1)C(Cl)Cl [Example 7, d(-)--threo-3-para-nitrophenyl-2-dichloroacetamido-3-hydroxypro-poxyphosphazotrichloroacetyl]
[4]
  solubility: soluble.in water, alcohols, acetone,--benzene, toluene
[12]
  killing at 3 %: 98%
[13]
  killing at 3 %: 100%

## COP(=O)(OC)OC=C(Cl)Cl [Known nematocidal preparation, 0,0-dimethyl-0-/2,2-dichlorovinyl/phosphate]
[5]
  killing at 1 %: 88.1%
[6]
  mortality at 1 %: 76%

## CNC(=S)S [carbathion, sodium N-methyldithiocarbamate dihydrate]
[12]
  killing at 3 %: 59%
[13]
  killing at 3 %: 60%
[11]; [14]
  killing at 2 %: 60%
[11]; [15]
  killing at 2 %: 80%
